# Patent US20140142343A1, “Novel Fragrance Compounds” (Givaudan Nederland Services B.V., priority 2006, published 2014)
# Assays:
# [1] = tested on: Mosquito (Aedes aegyptii); assay: Insect repellency against mosquitoes, treated arm in cage; format: in vivo
# Description: (§1) Compound 1 was tested for insect repellency against mosquitoes and ants. In all cases, repellency is calculated with reference to an untreated surface having 0% repellency.
# (§2) Ant (Lasius niger) 300 mm square vinyl tiles half treated with 0.9 ml test material and left for 2 hours. Glass arena 250 mm square, 75 mm high and fluon coated, open to air. Arena illuminated from 1.0 m above by four 18 W fluorescent lamps. 50 black ants per arena counted every 5 minutes. Arena turned 180 degrees every 10 minutes. Any ants injured or escaping replaced. Mosquito (Aedes aegyptii) A perspex box approx 18 inch cube, with sleeved circular entry was used as the test cage. The box contained 5 day old, mated honey fed females. The area of arm to be tested was measured. The test material was applied from ethanol solution at a rate of 0.2 mg test material per square centimetre. A similar area of the other arm was used for the control. A pair of disposable gloves was worn on the hands throughout the test. In turn each arm was inserted into the cage for 30 seconds. This was repeated 3 times. The number of mosquitoes landing on the arm was recorded every five seconds. As penetration of the skin occurs within 5 seconds the arm was flicked at this frequency to dislodge the flies.
# [2] = tested on: Ant (Lasius niger); assay: Insect repellency against ants, half-treated vinyl tiles; format: in vivo
# Description: as §1
# Ant test is completed with a simplified general purpose cleaner formulation: […]
# This product is applied to the floor tiles (vinyl) at the rate of 20 g·m^−2.
# as §2, with “As penetration of the skin occurs within 5 seconds the arm was flicked at this frequency to dislodge the flies.” left out
# [3] = tested on: Staphylococcus aureus ATCC 6538; assay: Minimum Inhibitory Concentration (MIC); format: cell-based; settings: for MIC: ATCC6538, Staphylococcus aureus ATCC 6538, change in absorbance <0.2 A540; for activity against Staphylococcus aureus (in words): summary statement
# Description: One property that characterises the effectiveness of a compound or composition to inhibit the growth of bacteria, is the minimum inhibitory concentration, or MIC, of the compound or composition. The MIC is defined as the minimum amount of a compound or composition (e.g. in ppm) at which little or no bacterial growth is observed. […] The minimum inhibitory concentration of a compound was determined by the following method. A culture of the test strains of bacteria Staphylococcus aureus ATCC 6538 (American Type Culture Collection, P.O. Box 1549, Manassas, Va. 20108, USA) was incubated for 16-24 hours, in a shaken flask at 37° C. The cultures was then diluted in sterile 0.1% TSB (Oxoid, Basingstoke, UK) to give a concentration of bacteria of approximately 10^6 colony forming units (cfu) per ml. Fragrance compounds were prepared in sterile TSB to give stock solutions with final concentrations of 40,000 ppm. The absorbance at 540 nm (hereinafter referred to for brevity and simplicity as “A540”) was used as a measure of turbidity resulting from bacterial growth. The MIC was taken as the concentration of ingredient required to inhibit growth so that the average change in absorbance during the incubation period was <0.2 A540.
Structure (SMILES),"repellency against mosquitoes ([1]; after 10 minutes, wrt untreated surface, 0.2 mg test material per square centimetre)",repellency properties against mosquitoes (in words) ([1]; summary statement),"repellency against ants ([2]; over first hour, wrt untreated surface, 1.0% in general purpose cleaner formulation)",repellency properties against ants (in words) ([2]; summary statement),MIC [3],activity against Staphylococcus aureus (in words) [3]
"CC(C)(C)C1CCCC(CCC=O)C1 (stereo not shown) [Compound 1, 3-(3-tert-butylcyclohexyl)propanal]",100%,excellent repellency properties,72%,excellent repellency properties,312 µg/mL,excellent activity against Staphylococcus aureus
"CC(C)C1CCCC(C(C)CC=O)C1 (stereo not shown) [Compound 2, 3-(3-isopropylcyclohexyl)butanal]",–,–,–,–,312 µg/mL,excellent activity against Staphylococcus aureus
"CC(C=O)CC1CCCC(C)C1 (stereo not shown) [Compound 3, 2-methyl-3-(3-methylcyclohexyl)propanal]",–,–,–,–,5000 µg/mL,–
"CC1CCCC(CCC=O)C1 (stereo not shown) [Compound 4, 3-(3-methylcyclohexyl)propanal]",–,–,–,–,> 5000 µg/mL,–
